From US20250367209A1 (SOUTHERN RESEARCH INSTITUTE, priority 2022, published 2025)
pIC50: −log10 of the molar value. Read-outs that look alike come from different tables or passages of the source.

How the values were obtained:
[1] = Metabolic stability in human liver microsomes; assay type: in vitro ADME; settings: Table 3, read-out: ADME t1/2 (min): HLMt1/2
From the text: A computational analysis of the top five hits was then completed to assess the physical attributes of the compounds emerging from the HTS. The target profile for drug-like properties included evaluation of molecular weight (MW), total polar surface area (PSA, the surface sum of all polar atoms on the molecule), solubility, metabolic stability, and partition coefficient (LogD). In general, MW<[…] and PSA <70 Å^2 were targeted, which generally allows for blood-brain barrier (BBB) permeability. Compounds with PSA >100 A^2 are generally poor at permeating cell membranes. Solubility was targeted at >10 μM at pH 7.4 and 40-60% of compound remaining after 60 minutes of incubation in mouse or human liver microsomes (an indicator of compound stability after first-pass metabolism). LogD is the log of the ratio of concentrations of a compound in two immiscible solvents at equilibrium. Values ranging from 2-4 were targeted, typical for CNS drugs. Based on these criteria, compound no. 55 was selected as the top hit for optimization. Compound no.

[2] = biological target: Tau-FynSH3 interaction (Homo sapiens (Human), UniProt P10636); experiment: Tau-FynSH3 AlphaScreen; assay type: binding
Sequence of Tau-FynSH3 interaction (P10636 other isoform, or with tags, fused parts or gaps): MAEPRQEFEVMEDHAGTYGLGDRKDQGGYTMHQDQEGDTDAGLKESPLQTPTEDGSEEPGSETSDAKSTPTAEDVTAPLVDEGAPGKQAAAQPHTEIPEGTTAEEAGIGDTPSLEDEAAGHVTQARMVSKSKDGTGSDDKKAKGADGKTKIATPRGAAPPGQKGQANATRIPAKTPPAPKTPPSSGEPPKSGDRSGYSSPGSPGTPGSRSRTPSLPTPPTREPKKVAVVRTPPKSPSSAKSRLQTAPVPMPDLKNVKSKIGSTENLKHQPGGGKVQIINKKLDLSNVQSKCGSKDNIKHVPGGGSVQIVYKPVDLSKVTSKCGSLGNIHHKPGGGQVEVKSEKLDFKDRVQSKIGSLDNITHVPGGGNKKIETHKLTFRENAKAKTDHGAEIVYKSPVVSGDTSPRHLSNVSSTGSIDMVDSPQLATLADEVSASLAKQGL
Summary of the method: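 Purified GST-Fyn-SH3-Strep and His-tagged human 4R2N Tau-Strep from E. coli, tested by AlphaScreen with glutathione donor and nickel chelate acceptor beads in Bis-Tris pH 7.0, TCEP, casein, Tween-20. Compound preincubated 30 min with first protein at 600 nM, then second protein 30 min, then beads 2 h.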

[3] = Table 2, Tau-FynSH3 inhibitory activity in the AlphaScreen, read-out: IC50
[4] = Table 3, read-out: Alpha screen IC50

| Compound | half-life [1] [min] | pIC50 [2, 3] | pIC50 [2, 4] | AlphaScreen activity (in words) [2] | pIC50 ([2]; unit printed as 'M', Table 2 gives 0.55 μM, read-out: IC50, inhibition in the AlphaScreen) |
| --- | --- | --- | --- | --- | --- |
| O=C(CN1CCOc2ccccc21)Nc1nnc(-c2ccccn2)[nH]1 [compound 47, 2-(2,3-DIHYDRO-4H-BENZO[B][1,4]OXAZIN-4-YL)-N-(5-(PYRIDIN-2-YL)-4H-1,2,4-TRIAZOL-3-YL)ACETAMIDE] | 93 | 6.49 | 6.04 |  |  |
| O=C(CN1C(=O)CSc2cc(F)ccc21)Nc1nnc(-c2ccccn2)[nH]1 [compound no. 12, 2-(7-FLUORO-3-oxo-2H-BENZO[B][1,4]THIAZIN-4(3H)-YL)-N-(5-(PYRIDIN-2-YL)-4H-1,2,4-TRIAZOL-3-YL)ACETAMIDE] | > 300 | 6.00 |  | submicromolar IC50 |  |
| O=C(CN1C(=O)CSc2cc(Cl)ccc21)Nc1nnc(-c2ccccn2)[nH]1 [compound no. 13, 2-(7-CHLORO-3-OXO-2H-BENZO[B][1,4]THIAZIN-4(3H)-YL)-N-(5-(PYRIDIN-2-YL)-4H-1,2,4-TRIAZOL-3-YL)ACETAMIDE] | > 120 |  | 6.03 |  |  |
| O=C(CN1C(=O)CSc2cc(F)c(F)cc21)Nc1nnc(-c2ccccn2)[nH]1 [compound no. 14, 2-(6,7-DIFLUORO-3-OXO-2H-BENZO[B][1,4]THIAZIN-4(3H)-YL)-N-(5-(PYRIDIN-2-YL)-4H-1,2,4-TRIAZOL-3-YL)ACETAMIDE] | 137 |  | 6.05 |  |  |
| O=C(CN1CCSc2ccccc21)Nc1nnc(-c2ccccn2)[nH]1 [compound no. 20, 2-(2H-BENZO[B][1,4]THIAZIN-4(3H)-YL)-N-(5-(PYRIDIN-2-YL)-4H-1,2,4-TRIAZOL-3-YL)ACETAMIDE] | 85 | 6.26 | 6.26 |  | 6.26 |
| Cc1ccc2c(c1)SCC(=O)N2CC(=O)Nc1nnc(-c2ccccn2)[nH]1 [compound no. 23, 2-(7-METHYL-3-OXO-2H-BENZO[B][1,4]THIAZIN-4(3H)-YL)-N-(5-(PYRIDIN-2-YL)-4H-1,2,4-TRIAZOL-3-YL)ACETAMIDE] | 133 | 6.10 |  |  |  |
| O=C(CN1CCCc2ccccc21)Nc1nnc(-c2ccccn2)[nH]1 [compound no. 45, 2-(3,4-DIHYDROQUINOLIN-1(2H)-YL)-N-(5-(PYRIDIN-2-YL)-4H-1,2,4-TRIAZOL-3-YL)ACETAMIDE] | 66 | 5.90 |  |  |  |
| O=C(CCN1C(=O)CSc2ccccc21)Nc1nnc(-c2ccccn2)[nH]1 [compound no. 55] |  | 5.30 |  |  |  |
| O=C(CN1CCOc2ccccc21)Nc1nnc(-c2ccccn2)[nH]1 [compound no. 69] |  |  |  | submicromolar activity |  |
